# Measurements taken from US20230391736A1, “3-TETRAZOLYLMETHYL-1,3,5-TRIAZIN-2,4-DIONE COMPOUND INHIBITING CORONAVIRUS 3CL PROTEASE ACTIVITY AND PREPARATION METHOD AND USE THEREOF” (priority 2022, published 2023).
# Where two headings read alike, the source gives them in different places.
# Key:
# A549 cells = test: In-vitro cytotoxicity by the MTT method, A549 cells; settings: 24 hrs
# Procedure: (§1) The in-vitro cytotoxicity of Compounds 1, 12, and 17 was evaluated by the MTT method. HepG2, HEK293 and A549 cells in logarithmic growth phase were respectively trypsinized into a cell suspension. The cell density was adjusted to 5×10^4 cells/mL. 180 μL per well of the cell suspension was inoculated into a sterile 96-well plate at 37° C., and cultured in an incubator at 5% CO2 for 24 hrs. After the cells were attached to the bottom of the plate, 20 μL of the drug solutions over the concentration gradients were respectively added into each well, and 6 replicate wells were set in parallel. Also, a blank group (group without cells and drug) and a control group (group without drug) were set. The system was incubated in an incubator at 37° C. and 5% CO2 for 24 hrs, and then 20 μL per well of a 5 g/L MTT solution was added and incubated for another 4 hrs. After the incubation was completed, the culture medium in the well was gently aspirated, and 100 μL of DMSO was added to each well. Then the crystal was fully dissolved in a shaker for 10 min at a low speed. After that, the absorbency of each well was measured at OD490 nm in an enzymelinked immunodetector, and the survival rate of cells was calculated.
# HEK293 cells = test: In-vitro cytotoxicity by the MTT method, HEK293 cells; settings: 24 hrs
# Procedure: as §1
# HepG2 cells = test: In-vitro cytotoxicity by the MTT method, HepG2 cells; settings: 24 hrs
# Procedure: as §1
# SARS-CoV-2 3CL^pro = SARS-CoV-2 3CL^pro (Severe acute respiratory syndrome coronavirus 2 (2019-nCoV) (SARS-CoV-2), UniProt P0DTD1); test: biochemical; settings: for IC50: FRET
compound,measurement,setting,value
Cn1cc2cc(/N=c3\[nH]c(=O)n(Cc4nnn[nH]4)c(=O)n3Cc3cc(F)c(F)cc3F)c(Cl)cc2n1 [Compound 1],Survival rate of A549 cells,A549 cells; 1.5625 nM,98.18%
same,Survival rate of A549 cells,A549 cells; 3.125 nM,98.39%
same,Survival rate of A549 cells,A549 cells; 6.25 nM,98.23%
same,Survival rate of A549 cells,A549 cells; 12.5 nM,96.93%
same,Survival rate of A549 cells,A549 cells; 25 nM,96.16%
same,Survival rate of A549 cells,A549 cells; 50 nM,96.33%
same,Survival rate of A549 cells,A549 cells; 100 nM,95.75%
same,Survival rate of A549 cells,A549 cells; 200 nM,93.23%
same,Survival rate of A549 cells,A549 cells; 400 nM,92.19%
same,Survival rate of HEK293 cells,HEK293 cells; 1.5625 nM,95.07%
same,Survival rate of HEK293 cells,HEK293 cells; 3.125 nM,95.62%
same,Survival rate of HEK293 cells,HEK293 cells; 6.25 nM,93.10%
same,Survival rate of HEK293 cells,HEK293 cells; 12.5 nM,90.50%
same,Survival rate of HEK293 cells,HEK293 cells; 25 nM,88.23%
same,Survival rate of HEK293 cells,HEK293 cells; 50 nM,87.10%
same,Survival rate of HEK293 cells,HEK293 cells; 100 nM,82.87%
same,Survival rate of HEK293 cells,HEK293 cells; 200 nM,82.56%
same,Survival rate of HEK293 cells,HEK293 cells; 400 nM,80.83%
same,Survival rate of HepG2 cells,HepG2 cells; 1.5625 nM,97.17%
same,Survival rate of HepG2 cells,HepG2 cells; 3.125 nM,96.73%
same,Survival rate of HepG2 cells,HepG2 cells; 6.25 nM,95.83%
same,Survival rate of HepG2 cells,HepG2 cells; 12.5 nM,93.62%
same,Survival rate of HepG2 cells,HepG2 cells; 25 nM,90.15%
same,Survival rate of HepG2 cells,HepG2 cells; 50 nM,89.09%
same,Survival rate of HepG2 cells,HepG2 cells; 100 nM,85.37%
same,Survival rate of HepG2 cells,HepG2 cells; 200 nM,84.76%
same,Survival rate of HepG2 cells,HepG2 cells; 400 nM,82.33%
same,IC50,"SARS-CoV-2 3CL^pro; class symbols, read-out: IC50 (nM), inhibitory activity against 3CL^pro",< 200 nM
same,IC50,"SARS-CoV-2 3CL^pro; non-linear regression, read-out: IC50 against 3CL^pro",120 nM
same,inhibition percentage of 3CL^pro,SARS-CoV-2 3CL^pro; concentration 0.1 nM,0.86%
same,inhibition percentage of 3CL^pro,SARS-CoV-2 3CL^pro; concentration 1 nM,2.12%
same,inhibition percentage of 3CL^pro,SARS-CoV-2 3CL^pro; concentration 5 nM,7.77%
same,inhibition percentage of 3CL^pro,SARS-CoV-2 3CL^pro; concentration 10 nM,9.75%
same,inhibition percentage of 3CL^pro,SARS-CoV-2 3CL^pro; concentration 20 nM,14.30%
same,inhibition percentage of 3CL^pro,SARS-CoV-2 3CL^pro; concentration 30 nM,18.23%
same,inhibition percentage of 3CL^pro,SARS-CoV-2 3CL^pro; concentration 50 nM,21.89%
same,inhibition percentage of 3CL^pro,SARS-CoV-2 3CL^pro; concentration 100 nM,58.21%
same,inhibition percentage of 3CL^pro,SARS-CoV-2 3CL^pro; concentration 500 nM,73.44%
same,inhibition percentage of 3CL^pro,SARS-CoV-2 3CL^pro; concentration 1000 nM,89.12%
